Reference: patent US8580965B2, “Substituted sulfonamide compounds” (Gruenenthal GmbH, priority 2006, dated 2013)

Columns and labels:
[1] = molecular target: T1, B1R receptor of the rat (bradykinin 1 receptor) (Rattus norvegicus, UniProt P97583); experiment: FLIPR Ca2+ assay (Fluo-4) on CHO K1 cells stably transfected with the B1R gene of the rat; % activation and % inhibition at 10 μM; assay type: cell-based; details: CHO-K1, test substance 10 μM; CHO K1 rB1R cells; Ca2+ inflow after 100 nM Des-Arg9-bradykinin; read-out: B1R antagonism, rat [10 μM] % inhibition
T1 construct: host or cells: CHO K1 cells (rB1R cells)
T1 sequence (P97583 1-337): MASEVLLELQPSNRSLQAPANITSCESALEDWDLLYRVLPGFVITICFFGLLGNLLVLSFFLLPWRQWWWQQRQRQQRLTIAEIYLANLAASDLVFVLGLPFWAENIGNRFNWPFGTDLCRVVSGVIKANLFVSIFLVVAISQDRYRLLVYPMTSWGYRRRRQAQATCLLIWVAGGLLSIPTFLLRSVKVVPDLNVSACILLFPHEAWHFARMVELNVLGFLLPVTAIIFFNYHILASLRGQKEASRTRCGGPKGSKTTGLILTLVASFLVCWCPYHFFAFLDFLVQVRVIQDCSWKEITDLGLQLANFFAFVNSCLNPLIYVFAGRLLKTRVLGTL
How it was run: (§1)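 CHO K1 cells stably expressing human or rat B1R, Fluo-4 loaded, read by FLIPR (peak fluorescence). Compound at 10 µM first gives % activation versus agonist; after 10 min, agonist (human: 0.5 nM Lys-Des-Arg9-bradykinin; rat: 100 nM Des-Arg9-bradykinin) gives % inhibition relative to maximal inhibition.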

[2] = molecular target: T2, human B1R receptor (bradykinin 1 receptor) (Homo sapiens, UniProt P46663); experiment: FLIPR Ca2+ assay (Fluo-4) on CHO K1 cells stably transfected with the human B1R gene; % activation and % inhibition at 10 μM; assay type: cell-based; details: CHO-K1, test substance 10 μM; CHO K1 hB1R cells; Ca2+ inflow after 0.5 nM Lys-Des-Arg9-bradykinin; read-out: B1R antagonism, human [10 μM] % inhibition
T2 construct: host or cells: CHO K1 cells (hB1R cells)
T2 sequence (P46663 1-353): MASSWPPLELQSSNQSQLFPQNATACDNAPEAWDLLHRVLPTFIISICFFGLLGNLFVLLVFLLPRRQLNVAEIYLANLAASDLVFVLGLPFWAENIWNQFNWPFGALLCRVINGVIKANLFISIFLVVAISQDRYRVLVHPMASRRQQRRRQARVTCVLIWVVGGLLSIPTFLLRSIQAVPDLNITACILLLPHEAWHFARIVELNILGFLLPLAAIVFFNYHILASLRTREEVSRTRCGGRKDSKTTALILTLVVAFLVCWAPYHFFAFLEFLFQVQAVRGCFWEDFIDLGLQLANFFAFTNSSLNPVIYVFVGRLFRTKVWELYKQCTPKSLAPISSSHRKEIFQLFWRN
How it was run: as §1

Structure (SMILES)	inhibition at 10 µM [1] [%]	inhibition at 10 µM [2] [%]
O=C(COC1CCN(S(=O)(=O)c2ccc(F)cc2)C1)N1CCC(O)(c2ccccn2)CC1 (stereo not shown) [Example 58, 2-[1-(4-fluoro-phenylsulfonyl)-pyrrolidin-3-yloxy]-1-(4′-hydroxy-3′,4′,5′,6′-tetrahydro-2′H-[2,4′]bipyridinyl-1′-yl)-ethanone]	-7.05	-23.8
O=C(CCC1CCCCN1S(=O)(=O)c1ccc2ccccc2c1)N1CCC(O)(c2cccnc2)CC1 (stereo not shown) [Example 117, 1-(4-hydroxy-4-(pyridin-3-yl)piperidin-1-yl)-3-(1-(naphthalen-2-ylsulfonyl)piperidin-2-yl)propan-1-one]	24.2	84.8
Cc1cc(C)c(S(=O)(=O)N2Cc3ccccc3CC2COCC(=O)N2CCC(O)(c3ccc(Cl)cc3)CC2)c(C)c1 (stereo not shown) [Example 200, 1-(4-(4-chlorophenyl)-4-hydroxypiperidin-1-yl)-2-((2-(mesitylsulfonyl)-1,2,3,4-tetrahydroisoquinolin-3-yl)methoxy)ethanone]	98.1	29.8
COc1cc(C)c(S(=O)(=O)N2CCCC2COCC(=O)N2CCC(O)(Cc3ccccc3)CC2)c(C)c1 (stereo not shown) [Example 216, 1-(4-benzyl-4-hydroxypiperidin-1-yl)-2-((1-(4-methoxy-2,6-dimethylphenylsulfonyl)pyrrolidin-2-yl)methoxy)ethanone]	100	102
COc1ccc(S(=O)(=O)N2CCC(OCC(=O)N3CCC(O)(c4ccccn4)CC3)(c3ccccc3)CC2)cc1 [Example 74, 1-(4′-hydroxy-3′,4′,5′,6′-tetrahydro-2′H-[2,4′]bipyridinyl-1′-yl)-2-[1-(4-methoxy-phenylsulfonyl)-4-phenyl-piperidin-4-yloxy]-ethanone]	-3.17	-7.3
COc1cc(C)c(S(=O)(=O)N2CCCCC2COCC(=O)N2CCC(O)(c3ccc(Cl)c(C(F)(F)F)c3)CC2)c(C)c1 (stereo not shown) [Example 246, 1-(4-(4-chloro-3-(trifluoromethyl)phenyl)-4-hydroxypiperidin-1-yl)-2-((1-(4-methoxy-2,6-dimethylphenylsulfonyl)piperidin-2-yl)methoxy)ethanone]	99	103
COc1cc(C)c(S(=O)(=O)N(C)CCOCCC(=O)N2CCC(O)(c3ccc(Cl)cc3)CC2)c(C)c1 [Example 275, N-(2-(3-(4-(4-chlorophenyl)-4-hydroxypiperidin-1-yl)-3-oxopropoxy)ethyl)-4-methoxy-N,2,6-trimethylphenylsulfonamide]	92.4	100
O=C(COCC1CCCN1S(=O)(=O)c1c(Cl)cccc1Cl)N1CCC(O)(c2ccc(Cl)c(C(F)(F)F)c2)CC1 (stereo not shown) [Example 218, 1-(4-(4-chloro-3-(trifluoromethyl)phenyl)-4-hydroxypiperidin-1-yl)-2-((1-(2,6-dichlorophenylsulfonyl)pyrrolidin-2-yl)methoxy)ethanone]	102	103
CN(c1ccccc1CCC(=O)N1CCC(O)(c2ccc(Cl)c(C(F)(F)F)c2)CC1)S(=O)(=O)c1ccc(Cl)c(Cl)c1 [Example 124, 3,4-dichloro-N-(2-(3-(4-(4-chloro-3-(trifluoromethyl)phenyl)-4-hydroxypiperidin-1-yl)-3-oxopropyl)phenyl)-N-methylphenylsulfonamide]	61.6	41
COc1cc(C)c(S(=O)(=O)N(C)CCCCC(=O)N2CCC(O)(c3cccnc3)CC2)c(C)c1 [Example 121, N-(5-(4-hydroxy-4-(pyridin-3-yl)piperidin-1-yl)-5-oxopentyl)-4-methoxy-N,2,6-trimethylphenylsulfonamide]	57.1	100
COc1cc(C)c(S(=O)(=O)N(CCOCC(=O)N2CCC(O)(c3ccc(Cl)c(C(F)(F)F)c3)CC2)CC(C)C)c(C)c1C [Example 238, N-(2-(2-(4-(4-chloro-3-(trifluoromethyl)phenyl)-4-hydroxypiperidin-1-yl)-2-oxoethoxy)ethyl)-N-isobutyl-4-methoxy-2,3,6-trimethylphenylsulfonamide]	97.4	57.3
COc1ccc(S(=O)(=O)N2CCCC2COCC(=O)N2CCC(O)(c3ccncc3)CC2)cc1 (stereo not shown) [Example 26, 1-(4-hydroxy-3,4,5,6-tetrahydro-2H-[4,4′]bipyridinyl-1-yl)-2-[1-(4-methoxy-phenylsulfonyl)-pyrrolidin-2-ylmethoxy]-ethanone]	5.09	9.64
O=C(COCC1Cc2ccccc2CN1S(=O)(=O)c1ccc(Cl)c(Cl)c1)N1CCC(O)(c2ccccc2)CC1 (stereo not shown) [Example 78, 2-((2-(3,4-dichlorophenylsulfonyl)-1,2,3,4-tetrahydroisoquinolin-3-yl)methoxy)-1-(4-hydroxy-4-phenylpiperidin-1-yl)ethanone]	12.7	13.7
O=C(COCC1CCCCN1S(=O)(=O)c1ccccc1C(F)(F)F)N1CCC(O)(c2cccc(C(F)(F)F)c2)CC1 (stereo not shown) [Example 177, 1-(4-hydroxy-4-(3-(trifluoromethyl)phenyl)piperidin-1-yl)-2-((1-(2-(trifluoromethyl)phenylsulfonyl)piperidin-2-yl)methoxy)ethanone]	104	101
COc1cc(C)c(S(=O)(=O)N(C)CCOCC(=O)N2CCC(O)(c3ccc(Cl)cc3)CC2)c(C)c1 [Example 136, N-(2-(2-(4-(4-chlorophenyl)-4-hydroxypiperidin-1-yl)-2-oxoethoxy)ethyl)-4-methoxy-N,2,6-trimethylphenylsulfonamide]	95.3	93.6
O=C(COCC1CCCCN1S(=O)(=O)c1csc2ccccc12)N1CCC(O)(c2cccnc2)CC1 (stereo not shown) [Example 273, 2-((1-(benzo[b]thiophen-3-ylsulfonyl)piperidin-2-yl)methoxy)-1-(4-hydroxy-4-(pyridin-3-yl)piperidin-1-yl)ethanone]	101	103
Cc1cc(S(=O)(=O)N(C)CCOCC(=O)N2CCC(O)(c3ccc(Cl)cc3)CC2)c(C)s1 [Example 256, N-(2-(2-(4-(4-chlorophenyl)-4-hydroxypiperidin-1-yl)-2-oxoethoxy)ethyl)-N,2,5-trimethylthiophene-3-sulfonamide]	90.7	56.3
O=C(COCC1CCCCN1S(=O)(=O)c1c(Cl)cccc1Cl)N1CCC(O)(c2cccnc2)CC1 (stereo not shown) [Example 196, 2-((1-(2,6-dichlorophenylsulfonyl)piperidin-2-yl)methoxy)-1-(4-hydroxy-4-(pyridin-3-yl)piperidin-1-yl)ethanone]	96.5	103
O=C(COCC1CCCN1S(=O)(=O)c1c(Cl)cc(C(F)(F)F)cc1Cl)N1CCC(O)(c2ccccc2)CC1 (stereo not shown) [Example 168, 2-((1-(2,6-dichloro-4-(trifluoromethyl)phenylsulfonyl)pyrrolidin-2-yl)methoxy)-1-(4-hydroxy-4-phenylpiperidin-1-yl)ethanone]	104	33.1
COc1cc(C)c(S(=O)(=O)N(C)CCOCC(=O)N2CCC(O)(c3ccccc3)CC2)c(C)c1 [Example 137, N-(2-(2-(4-hydroxy-4-phenylpiperidin-1-yl)-2-oxoethoxy)ethyl)-4-methoxy-N,2,6-trimethylphenylsulfonamide]	99.3	101
O=C(COCC1Cc2ccccc2CN1S(=O)(=O)c1ccccc1)N1CCC(O)(Cc2ccccc2)CC1 (stereo not shown) [Example 77, 2-(2-phenylsulfonyl-1,2,3,4-tetrahydro-isoquinolin-3-ylmethoxy)-1-(4-benzyl-4-hydroxy-piperidin-1-yl)-ethanone]	-0.12	13.3
O=C(COCC1CCCCN1S(=O)(=O)c1ccc(C(F)(F)F)cc1)N1CCC(O)(c2cccnc2)CC1 (stereo not shown) [Example 155, 1-(4-hydroxy-4-(pyridin-3-yl)piperidin-1-yl)-2-((1-(4-(trifluoromethyl)phenylsulfonyl)piperidin-2-yl)methoxy)ethanone]	60.3	30.3
Cc1cc(S(=O)(=O)N(C)CCOCC(=O)N2CCC(O)(c3ccc(Cl)c(C(F)(F)F)c3)CC2)c(C)s1 [Example 259, N-(2-(2-(4-(4-chloro-3-(trifluoromethyl)phenyl)-4-hydroxypiperidin-1-yl)-2-oxoethoxy)ethyl)-N,2,5-trimethylthiophene-3-sulfonamide]	93.3	94
